Data taken from ChEMBL document CHEMBL2029292, “Identification of novel adenosine A(2A) receptor antagonists by virtual screening” (J Med Chem, 2012).
pKi: −log10 of the molar value.

Columns and labels:
Adenosine receptor A2a = Adenosine receptor A2a (Homo sapiens, UniProt P29274); assay: Displacement of [3H]ZM241385 from human A2A receptor expressed in HEK293 cells after 1 hr by liquid scintillation counting; assay type: cell-based
HEK293 = assay: Selectivity ratio of Ki for human A1 receptor expressed in CHO cells to Ki for human A2A receptor expressed in HEK293 cells; assay type: cell-based

Adenosine receptor A2a, sequence (P29274 whole entry): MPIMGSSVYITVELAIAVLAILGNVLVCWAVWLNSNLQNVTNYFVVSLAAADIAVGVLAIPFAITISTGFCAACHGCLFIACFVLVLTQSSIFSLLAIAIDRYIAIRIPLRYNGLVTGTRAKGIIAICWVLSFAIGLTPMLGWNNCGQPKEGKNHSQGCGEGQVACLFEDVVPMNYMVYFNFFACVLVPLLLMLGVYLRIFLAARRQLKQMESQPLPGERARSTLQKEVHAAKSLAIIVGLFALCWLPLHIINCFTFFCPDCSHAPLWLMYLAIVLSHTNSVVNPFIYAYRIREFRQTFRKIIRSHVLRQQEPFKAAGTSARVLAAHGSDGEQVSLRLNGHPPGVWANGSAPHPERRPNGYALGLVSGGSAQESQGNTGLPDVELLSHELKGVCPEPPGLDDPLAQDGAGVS

Structure (SMILES) | pKi (Adenosine receptor A2a) | Ratio Ki (HEK293)
COC1CCN(c2cccc(-c3nc(N)nc(-c4ccccc4O)n3)c2)CC1 | 8.80 | 19
CC(C)c1nc(N)nc(-c2ccccc2O)n1 | 7.91 | 37
NC(c1csc(Nc2nncc3ccccc23)n1)c1ccccc1Cl (stereo unspecified) | 5.62 | –
CC1CC(c2ccccc2)n2nc(N3C(=O)C4CC=CCC4C3=O)nc2N1 (stereo unspecified) | 5.70 | –
Nc1cccc(CC2SC(=O)NC2=O)c1 (stereo unspecified) | 5.15 | –
O=C(c1ccc(F)cc1)c1c[nH]c(C(=O)NCCCn2ccnc2)c1 | 5.33 | –
CN1CCN(C(=O)c2cccc(-c3nc(N)nc(-c4ccccc4O)n3)c2)CC1 | 8.99 | 59
COCCN1C(=O)c2[nH]nc(-c3ccccc3O)c2C1c1ccc(F)cc1 (stereo unspecified) | 5.91 | –
Cc1csc(-c2coc3cc(OCC(=O)O)cc(C)c3c2=O)n1 | 5.65 | –
CSc1nc2nc3c(c(O)n2n1)CN(Cc1ccccc1)CC3 | 6.15 | –
COc1ccc(N2CC(C(=O)NC(Cc3ccccc3)C(=O)O)CC2=O)cc1 (stereo unspecified) | 5.53 | –
CC(=O)Oc1cc(C)c2c(=O)c(-c3nc(C)cs3)coc2c1 | 7.47 | 13
Cc1cc(O)c(C(C)C)cc1N=C1CSC(=O)N1 | 5.75 | –
Cc1ccsc1/C=C/c1nc(N)nc(-c2ccccc2O)n1 | 8.46 | 9.5
CCc1cc2c(=O)c(-c3nc(C)cs3)coc2cc1OCC(=O)OC(C)C | 7.82 | > 100
